Patent US10538485B2, “Compounds for use as therapeutic agents affecting P53 expression and/or activity” (ABIVAX, priority 2011, dated 2020)

Experiments:
Type in all cases: cell-based
[1] = test system: p53 isoforms produced by alternative splicing (wild-type p53 MCF7 cells); assay: p53 isoforms (α, β, γ) expression at mRNA level in MCF7 cells; conditions: 5 μM, 48 hours, RT-qPCR
Description: (§1) Two breast cancer cell lines have been treated with 5 μM of drugs for 48 hours: wild-type p53 MCF7 cells and mutant p53 (R280K) MDA-MB-231-Luc-D3H2N provided by Caliper Life Science (parental Line source: American Type Culture collection). The MDA-MB-231-Luc-D3H2N cells were maintained in two different media during treatment: a DMEM supplemented with 10% foetal calf serum (FCS) and a FCS-free medium for 24 hours followed by 24 hours in a complete medium. The MC7 cells were maintained in a DMEM/FCS 10% medium.
(§2) Cells were harvested after 48 hours of treatment. Total RNAs (RNeasy Mini-Kit, Qiagen) and proteins (NuPage LDS 1×, Invitrogen) were extracted to analyse mRNA expression by nested RT-PCR or RT-qPCR and protein expression by Western Blot.
(§3) Expression of p53 isoforms produced by alternative splicing (α, β and γ) was analysed at mRNA levels by RT-qPCR using primers/probe specific of each C-terminal variants. The α-forms are the most abundant forms. In the low abundant forms, β-forms are more expressed than γ-forms.
(§4) A semi-quantitative RT-PCR method requiring high quality total RNA 28S/18S ratio (>1.5). After reverse-transcription of 500 ng of total RNA using random primers, actin cDNA was amplified by PCR to confirm reverse-transcription efficiency. 0.5 μg of total RNA from each tumour sample was reverse-transcribed (AMV RT, 45C, random primer) and cDNA quality confirmed by amplification of actin by PCR in 30 cycles. p53 isoform cDNA was amplified by 2 nested PCR of 30 cycles using primers specific of each isoforms as described by Bourdon et al. (Genes Dev., 2005, 19: 2122). Tumours were considered to express each p53 isoform after sequencing of the corresponding PCR fragment.

[2] = test system: p53-target genes Hdm2, Bcl-2, p21 (mutant p53 MDA-MB-231-Luc-D3H2N cells); assay: p53 transcriptional activity: p53-target gene expression by Western-blot in MDA-MB-231-Luc-D3H2N cells; conditions: 5 μM, 48 hours
Description: (§5) The compounds of the invention have been tested according to the following pharmacological test and the three compounds have been more particularly tested: (40), (1) and (45), all diluted in DMSO. Their effects were thus compared to cells treated with DMSO. A positive control was used, TG003, a benzothiazole compound known to alter splicing through the inhibition of Clk/Sty family activity (Sigma, ref: T5575).
as §1, §2
Analysis of p53 transcriptional activity was assessed through analysis of p53-target gene expression by Western-blot. Four p53-target genes were studied: Hdm2, Bcl-2, p21 and Bax. Hdm2 is known to bind p53 and to negatively regulate p53 activity and stability. p21 is known to mediate p53 dependent cycle arrest. Bcl 2 is known to have an anti-proliferative effect and an apoptotic protective effect, while Bax is known to have a pro-apoptic effect. Bax was not detected in both MCF7 and MDA-MB-231-Luc-D3H2N cells, while p21 was not detected in MDA-MB-231-Luc-D3H2N cells maintained in FCS-free medium. The Western-blot was performed as above described using the antibodies described in Bourdon et al., Genes Dev., 2005, 19: 2122.

[3] = test system: p53 (mutant p53 (R280K) MDA-MB-231-Luc-D3H2N cells); assay: p53 mRNA level by RT-qPCR in MDA-MB-231-Luc-D3H2N cells; conditions: 5 μM, 48 hours
Description: as §5, §1, §2
(§6) Analysis of p53 expression was assessed both at mRNA (full-length and truncated, Δ133p53 isoforms) and protein (full-length) levels by RT-qPCR and Western Blot, respectively.
as §4, with “The p53 isoform cDNA being too long to be specifically quantified by RT-qPCR, a semi-quantitative” for “A semi-quantitative”, “method was therefore used,” for “method”, “RT, 45 C,” for “RT, 45C,”, “described in” for “described by”

[4] = test system: p53 isoforms produced by alternative splicing (mutant p53 MDA-MB-231-Luc-D3H2N cells); assay: p53 isoforms (α, β, γ) expression at mRNA level in MDA-MB-231-Luc-D3H2N cells; conditions: 5 μM, 48 hours
Description: as §1, §2, §3, §4

[5] = test system: p53 (mutant p53 (R280K) MDA-MB-231-Luc-D3H2N cells); assay: p53 protein expression by Western Blot (4 antibodies) in MDA-MB-231-Luc-D3H2N cells; conditions: 5 μM, 48 hours
Description: as §5, §1, §2
p53 protein expression was determined using a panel of 4 different antibodies, namely DO1, SAPLI, CMI and DO12 as described in Bourdon et al. (Genes Dev., 2005, 19: 2122), to avoid problem of detection due to post-translational modification.
The amount of total proteins in each extract was quantified using BCA kit (promega). 8% SDS-PAGE gels were used. Equal amount (30 μg) of proteins was loaded on each lane. Proteins were then transferred electrophoretically on nitrocellulose membrane. Membranes were blocked in TBS/0.1% Tween 20 containing 3% milk for one hour and then incubated overnight with the primary antibodies diluted in TBS/0.1% Tween 20 containing 3% milk. After several washes in TBS/Tween, membranes were incubated with anti-rabbit Ig antibodies linked to HRP. Membranes were developed with ECL according to the manufacturer's instructions.
Scanned autoradiographs were quantified using AIDA/2D densitometry software.

[6] = test system: p53 (wild-type p53 MCF7 cells); assay: p53 and Δ133p53 mRNA level by RT-qPCR in MCF7 cells; conditions: 5 μM, 48 hours, vs DMSO
Description: as §5, §1, §2, §6
as §4, with “The p53 isoform cDNA being too long to be specifically quantified by RT-qPCR, a semi-quantitative” for “A semi-quantitative”, “method was therefore used,” for “method”, “RT, 45 C,” for “RT, 45C,”, “described in” for “described by”

[7] = test system: MDA-MB231-luc-D3H2LN cells; assay: Invasion of MDA-MB231-D3H2LN cells into collagen; conditions: MDA-MB-231, anti-invasive effect in MDA-MB231 breast cancer cells, concentration giving 0.5 fold the effect of 10 μM Y-27632 ref. compound, read-out: 0.5 fold effect compared to 10 μM Y-27632
Description: 13.4 Effect of Drug Compounds on Invasion of MDA-MB231-D3H2LN Cells into Collagen
A key step in the generation of tumor metastasis is the invasion of tumor cells into the extracellular matrix, a major component of which is collagen. Therefore, the invasion of tumor cells into collagen in vitro may be indicative of the generation of metastasis in vivo. E. g., MDA-MB231-luc-D3H2LN […] breast cancer cells display indeed both higher invasion into collagen in vitro and a higher metastatic potential in vivo as compared to MDA-MB231 cells (from which they were derived). Using these MDA-MB231-luc-D3H2LN cells as a model, the aim of the experiment described here is to identify drug compounds that inhibit the invasion of tumor cells into collagen in vitro, therefore potentially inhibiting also the generation of tumor metastasis in vivo.
Step 1: Preparation of cells at the bottom of a collagen gel: Cells are suspended in a liquid collagen solution (4° C.), distributed into BSA-coated wells, and then collected at the bottom of the wells by centrifugation. The collagen is then solidified by incubation at 37° C. The BSA coating improves the adhesion of the collagen gel.
Step 2: Pre-treatment with the compounds to be tested: Concentrated drug solutions are then added on top of the collagen, and cells are pre-incubated for 24 h with the drugs at low serum conditions (0.025% FBS).
Step 3: Stimulation of invasion: Medium with 5% FBS is then added in order to stimulate invasion of the cells into the collagen gel.
Step 4: Fixation and staining: Following another 24 h incubation, cells are fixed and nuclei are stained.
Step 5: Analysis: Finally, plates are analyzed using an automated microscope. Fluorescent beads that have been included into the BSA coating serve to detect the bottom of the wells. Pictures of the stained nuclei are taken at the same level (0 μm) as well as 25 μm and 50 μm above.
Invasion assay: Negative control: No drug (just DMSO at equivalent concentration). Positive control: 10 μM Y-27632. To avoid edge effects, only the 60 central wells B2-G11 are used; lines A and H as well as columns 1 and 12 remain free. Each drug is tested at least in triplicate. The positive and negative controls should be tested in double triplicates at different positions on each plate. Typical plate map (−=negative control, +=positive control, 1-16=16 different drug compounds):
for each well, calculate the mean invasion distance of the counted cells: (25 μm×number of cells at 25 μm+50 μm×number cells at 50 μm)/sum of cells at 0, 25 and 50 μm
for all four parameters (number of cells at 0 μm, number of cells at 25 μm, number of cells at 50 μm, mean invasion distance of the counted cells), calculate means, SD and CV of the replicates (n=6 for the controls; n=3 for the samples)
invalidate any replicate with a CV≥50% (compound to be re-tested, or assay to be repeated if CV≥50% for the untreated negative control or the compound Y-27632-treated positive control). Y27632 is a selective inhibitor of the Rho-associated protein kinase p160ROCK of the following formula
validate the assay only if the mean invasion distance of the cells treated with 10 μM Y-27632 (positive control) is decreased by ≥40% as compared to the untreated negative control
Anti-invasive effect in MDA-MB231 breast cancer cells: 0.5 fold effect compared to 10 μM Y-27632 ref. compound.

[8] = mutant p53 MDA-MB-231-Luc-D3H2N cells in FCS-free medium
[9] = mutant p53 MDA-MB-231-Luc-D3H2N cells in normal medium
[10] = mutant p53 MDA-MB-231-Luc-D3H2N cells in FCS-free medium, RT-qPCR
[11] = mutant p53 MDA-MB-231-Luc-D3H2N cells in normal medium, RT-qPCR

CC(C)CCNC(=O)c1cccc(Nc2cccc(/C=C/c3ccncc3)c2)c1 [Compound 1, (E)-N-(3-methylbutyl)-3-[3-(2-pyridin-4-ylvinyl)phenylamino]benzamide]
expression of p53 β-forms (mRNA) [1]: tend to increase
expression of p53 γ-forms (mRNA) [1]: tend to increase
p53 α-form expression at mRNA levels [1]: did not change
expression of Hdm2 (p53-target gene) [2, 8]: slight decrease
p53-target genes expression [2, 9]: did not affect
p53 expression at mRNA levels (total isoforms, TA): decreased or not [3, 8]: decreased
p53 expression at mRNA levels (total isoforms, TA) [3, 9]: significant decrease
expression of p53 γ-forms (mRNA) [4, 10]: no significant increase
p53 α-form expression at mRNA levels [4, 10]: did not change
p53 γ-forms expression by nested RT-PCR [4, 8]: restoration
expression of p53 β-forms (mRNA) [4, 11]: tend to increase
expression of p53 γ-forms (mRNA) [4, 11]: tend to increase
p53 α-form expression at mRNA levels [4, 11]: did not change
p53 γ-forms expression by nested RT-PCR [4, 9]: restoration
p53 protein levels (full-length) [5, 8]: did not change
p53 protein levels (full-length) [5, 9]: did not change
total p53 expression (total isoforms, TA) at mRNA levels [6]: did not change
Δ133p53 mRNA level [6]: increased

CCN(CC)CCCNC(=O)c1ccc(Nc2cccc(/C=C/c3ccncc3)c2)c(C)c1 [Compound 6]
IC (0.5-fold effect of 10 uM Y-27632) [7]: 0.7 ± 0.1 µM

NC(=O)c1cccc(Nc2cccc(/C=C/c3ccncc3)c2)c1 [Compound 9, 3-[3-(2-pyridin-4-ylvinyl)phenylamino]benzamide]
IC (0.5-fold effect of 10 uM Y-27632) [7]: 1.1 ± 0.4 µM

O=S(=O)(NCCCN1CCOCC1)c1cccc(Nc2cccc(/C=C/c3ccncc3)c2)c1 [Compound 16]
IC (0.5-fold effect of 10 uM Y-27632) [7]: 0.75 ± 0.19 µM

O=S(=O)(NCCCN1CCCCC1)c1cccc(Nc2cccc(/C=C/c3ccncc3)c2)c1 [Compound 17]
IC (0.5-fold effect of 10 uM Y-27632) [7]: 0.83 ± 0.09 µM

CCN(CC)CCCNS(=O)(=O)c1cccc(Nc2cccc(/C=C/c3ccncc3)c2)c1 [Compound 18, N-(3-diethylaminopropyl)-3-[3-(2-pyridin-4-ylvinyl)phenylamino]benzenesulfonamide]
IC (0.5-fold effect of 10 uM Y-27632) [7]: 0.55 ± 0.05 µM

O=C(NCCCN1CCCCC1)c1cccc(Nc2cccc(/C=C/c3ccncc3)c2)c1 [Compound 19]
IC (0.5-fold effect of 10 uM Y-27632) [7]: 0.25 ± 0.05 µM

CN1CCN(CCCNC(=O)c2cccc(Nc3cccc(/C=C/c4ccncc4)c3)c2)CC1 [Compound 21, (E)-[3-(4-methyl-piperazinyl)-propyl]-3-[3-(2-pyridin-4-ylvinyl)-phenylamino]-benzamide]
IC (0.5-fold effect of 10 uM Y-27632) [7]: 0.17 ± 0.04 µM

O=C(NCCCN1CCCC1)c1cccc(Nc2cccc(/C=C/c3ccncc3)c2)c1 [Compound 22]
IC (0.5-fold effect of 10 uM Y-27632) [7]: 0.3 ± 0.05 µM

O=S(=O)(NCCN1CCCCC1)c1cccc(Nc2cccc(/C=C/c3ccncc3)c2)c1 [Compound 24]
IC (0.5-fold effect of 10 uM Y-27632) [7]: 0.64 ± 0.2 µM

O=S(=O)(NCCN1CCCC1)c1cccc(Nc2cccc(/C=C/c3ccncc3)c2)c1 [Compound 25]
IC (0.5-fold effect of 10 uM Y-27632) [7]: 0.5 ± 0.21 µM

CCN(CC)CCCNC(=O)c1ccccc1Nc1cccc(OC(F)(F)F)c1 [Compound 49]
IC (0.5-fold effect of 10 uM Y-27632) [7]: 0.13 ± 0.3 µM

CCN(CC)CCCNC(=O)c1ccccc1Nc1ccc(OCc2ccccc2)cc1 [Compound 50]
IC (0.5-fold effect of 10 uM Y-27632) [7]: 1 µM

CCN(CC)CCCNC(=O)c1ccccc1Nc1cccc(/C=C/c2ccncc2)c1 [Compound 129]
IC (0.5-fold effect of 10 uM Y-27632) [7]: 0.2 µM
